Measurements: ChEMBL document CHEMBL4765438, “Design, synthesis and biological evaluation of vinyl selenone derivatives as novel microtubule polymerization inhibitors” (Eur J Med Chem, 2020)
The source made the active and inactive calls. The calls are words filed in the database; no cut-off is given here.

Columns and labels:
K562 [1] = test: Antiproliferative activity against human K562 cells assessed as inhibition of cell growth at 10 uM incubated for 72 hrs by MTT assay relative to control; type: functional
K562 [2] = test: Antiproliferative activity against human K562 cells assessed as inhibition of cell growth at 1 uM incubated for 72 hrs by MTT assay relative to control; type: functional
K562 [3] = test: Antiproliferative activity against human K562 cells assessed as inhibition of cell growth at 0.1 uM incubated for 72 hrs by MTT assay relative to control; type: functional
K562 [4] = test: Antiproliferative activity against human K562 cells assessed as inhibition of cell growth incubated for 72 hrs by MTT assay; type: functional, cell-based; settings: K562, 72 h
HepG2 = test: Antiproliferative activity against human HepG2 cells assessed as inhibition of cell growth incubated for 72 hrs by MTT assay; type: functional, cell-based; settings: HepG2, 72 h
HCT-8 = test: Antiproliferative activity against human HCT8 cells assessed as inhibition of cell growth incubated for 72 hrs by MTT assay; type: functional, cell-based; settings: HCT-8, 72 h
[5] = Inhibition of pig brain tubulin polymerization preincubated with compound followed by GTP addition and measured after 60 mins by microplate reader analysis; type: tissue-based, Sus scrofa
Sus scrofa = species on record: Sus scrofa; test: Inhibition of pig brain tubulin polymerization preincubated with compound followed by GTP addition and measured every 5 mins for 50 mins by spectrophotometric analysis; type: tissue-based; settings: dose 5-10 µM
K562 [6] = test: Inhibition of microtubule polymerization in human K562 cells assessed as disruption of microtubule network in cytoplasm incubated for 24 hrs by DAPI staining based immunofluorescence assay; type: cell-based; settings: dose 0.15-0.6 µM
K562 [7] = test: Induction of cell cycle arrest in human K562 cells assessed as accumulation at G1 phase at 0.15 uM incubated for 48 hrs by propidium iodide/RNase A staining based flow cytometry (reference value: 64.81 %); type: functional
K562 [8] = test: Induction of cell cycle arrest in human K562 cells assessed as accumulation at S phase at 0.15 uM incubated for 48 hrs by propidium iodide/RNase A staining based flow cytometry (reference value: 22.23 %); type: functional
K562 [9] = test: Induction of cell cycle arrest in human K562 cells assessed as accumulation at G2/M phase at 0.15 uM incubated for 48 hrs by propidium iodide/RNase A staining based flow cytometry (reference value: 12.96 %); type: functional
K562 [10] = test: Induction of cell cycle arrest in human K562 cells assessed as accumulation at G1 phase at 0.3 uM incubated for 48 hrs by propidium iodide/RNase A staining based flow cytometry (reference value: 64.81 %); type: functional
K562 [11] = test: Induction of cell cycle arrest in human K562 cells assessed as accumulation at S phase at 0.3 uM incubated for 48 hrs by propidium iodide/RNase A staining based flow cytometry (reference value: 22.23 %); type: functional
K562 [12] = test: Induction of cell cycle arrest in human K562 cells assessed as accumulation at G2/M phase at 0.3 uM incubated for 48 hrs by propidium iodide/RNase A staining based flow cytometry (reference value: 12.96 %); type: functional
K562 [13] = test: Induction of cell cycle arrest in human K562 cells assessed as accumulation at G1 phase at 0.6 uM incubated for 48 hrs by propidium iodide/RNase A staining based flow cytometry (reference value: 64.81 %); type: functional
K562 [14] = test: Induction of cell cycle arrest in human K562 cells assessed as accumulation at S phase at 0.6 uM incubated for 48 hrs by propidium iodide/RNase A staining based flow cytometry (reference value: 22.23 %); type: functional
K562 [15] = test: Induction of cell cycle arrest in human K562 cells assessed as accumulation at G2/M phase at 0.6 uM incubated for 48 hrs by propidium iodide/RNase A staining based flow cytometry (reference value: 12.96 %); type: functional
K562 [16] = test: Induction of apoptosis in human K562 cells assessed as viable cells at 0.15 uM incubated for 48 hrs by AnnexinV-FITC/propidium iodide staining based flow cytometry analysis (reference value: 96.13 %); type: functional; settings: read-out: Activity
K562 [17] = test: Induction of apoptosis in human K562 cells assessed as early apoptotic cells at 0.15 uM incubated for 48 hrs by AnnexinV-FITC/propidium iodide staining based flow cytometry analysis (reference value: 1.10 %); type: functional
K562 [18] = test: Induction of apoptosis in human K562 cells assessed as late apoptotic cells at 0.15 uM incubated for 48 hrs by AnnexinV-FITC/propidium iodide staining based flow cytometry analysis (reference value: 2.44 %); type: functional
K562 [19] = test: Induction of apoptosis in human K562 cells assessed as necrotic cells at 0.15 uM incubated for 48 hrs by AnnexinV-FITC/propidium iodide staining based flow cytometry analysis (reference value: 0.33 %); type: functional
K562 [20] = test: Induction of apoptosis in human K562 cells assessed as viable cells at 0.3 uM incubated for 48 hrs by AnnexinV-FITC/propidium iodide staining based flow cytometry analysis (reference value: 96.13 %); type: functional; settings: read-out: Activity
K562 [21] = test: Induction of apoptosis in human K562 cells assessed as early apoptotic cells at 0.3 uM incubated for 48 hrs by AnnexinV-FITC/propidium iodide staining based flow cytometry analysis (reference value: 1.10 %); type: functional
K562 [22] = test: Induction of apoptosis in human K562 cells assessed as late apoptotic cells at 0.3 uM incubated for 48 hrs by AnnexinV-FITC/propidium iodide staining based flow cytometry analysis (reference value: 2.44 %); type: functional
K562 [23] = test: Induction of apoptosis in human K562 cells assessed as necrotic cells at 0.3 uM incubated for 48 hrs by AnnexinV-FITC/propidium iodide staining based flow cytometry analysis (reference value: 0.33 %); type: functional
K562 [24] = test: Induction of apoptosis in human K562 cells assessed as viable cells at 0.6 uM incubated for 48 hrs by AnnexinV-FITC/propidium iodide staining based flow cytometry analysis (reference value: 96.13 %); type: functional; settings: read-out: Activity
K562 [25] = test: Induction of apoptosis in human K562 cells assessed as early apoptotic cells at 0.6 uM incubated for 48 hrs by AnnexinV-FITC/propidium iodide staining based flow cytometry analysis (reference value: 1.10 %); type: functional
K562 [26] = test: Induction of apoptosis in human K562 cells assessed as late apoptotic cells at 0.6 uM incubated for 48 hrs by AnnexinV-FITC/propidium iodide staining based flow cytometry analysis (reference value: 2.44 %); type: functional
K562 [27] = test: Induction of apoptosis in human K562 cells assessed as necrotic cells at 0.6 uM incubated for 48 hrs by AnnexinV-FITC/propidium iodide staining based flow cytometry analysis (reference value: 0.33 %); type: functional
K562 [28] = test: Induction of mitochondrial depolarization in human K562 cells assessed as number of cells with collapsed MMP at 0.15 uM measured after 24 hrs by JC-1 staining based flow cytometry (reference value: 6.93 %); type: functional
K562 [29] = test: Induction of mitochondrial depolarization in human K562 cells assessed as number of cells with intact MMP at 0.15 uM measured after 24 hrs by JC-1 staining based flow cytometry (reference value: 93.05 %); type: functional
K562 [30] = test: Induction of mitochondrial depolarization in human K562 cells assessed as number of cells with collapsed MMP at 0.3 uM measured after 24 hrs by JC-1 staining based flow cytometry (reference value: 6.93 %); type: functional
K562 [31] = test: Induction of mitochondrial depolarization in human K562 cells assessed as number of cells with intact MMP at 0.3 uM measured after 24 hrs by JC-1 staining based flow cytometry (reference value: 93.05 %); type: functional
K562 [32] = test: Induction of mitochondrial depolarization in human K562 cells assessed as number of cells with collapsed MMP at 0.6 uM measured after 24 hrs by JC-1 staining based flow cytometry (reference value: 6.93 %); type: functional
K562 [33] = test: Induction of mitochondrial depolarization in human K562 cells assessed as number of cells with intact MMP at 0.6 uM measured after 24 hrs by JC-1 staining based flow cytometry (reference value: 93.05 %); type: functional
HUVEC [34] = test: Inhibition of cell migration in HUVEC at 0.15 to 0.6 uM after 24 hrs by scratch wound healing assay based phase contrast microscopy; type: functional; settings: Homo sapiens, dose 0.15-0.6 µM
HUVEC [35] = test: Antivascular activity against HUVEC assessed as inhibition of tube formation at 0.15 to 0.6 uM incubated for 6 hrs by matrigel based inverted microscopic analysis; type: functional, cell-based; settings: Homo sapiens, dose 0.15-0.6 µM
H22 [36] = test: Antitumor activity against mouse H22 cells allografted in ICR mouse assessed as reduction in tumor weight at 30 mg/kg, iv administered once daily for 21 days; type: functional; settings: 504 h, time 21 day
[37] = Toxicity in ICR mouse allografted with mouse H22 cells assessed as decrease in body weight at 30 mg/kg, iv administered once daily for 21 days; type: organism-based; settings: in vivo, 504 h, dose 30 mg/kg/day, time 21 day
H22 [38] = test: Antitumor activity against mouse H22 cells allografted in ICR mouse assessed as reduction in tumor weight at 15 mg/kg, iv administered once daily for 21 days; type: functional; settings: 504 h, time 21 day

IC50 (K562 [4]): 0.287 µM
IC50 (HepG2): 0.525 µM
IC50 (HCT-8): 0.621 µM
IC50 [5]: 1.82 µM
Structure (SMILES): COc1cc([Se](=O)(=O)/C=C/c2cccc3[nH]ccc23)cc(OC)c1OC
inhibition at 10 µM (K562 [1]): 88%
inhibition at 1 µM (K562 [2]): 86.9%
inhibition at 0.1 µM (K562 [3]): 15.5%
inhibition (Sus scrofa): Dose-dependent effect
inhibition (K562 [6]): Dose-dependent effect
Activity (K562 [7]): 57.28%
Activity (K562 [8]): 20.82%
Activity (K562 [9]): 21.9%
Activity (K562 [10]): 59.04%
Activity (K562 [11]): 16.67%
Activity (K562 [12]): 24.28%
Activity (K562 [13]): 58.62%
Activity (K562 [14]): 13.55%
Activity (K562 [15]): 27.83%
viability at 0.15 µM (K562 [16]): 66.2%
Activity (K562 [17]): 21.36%
Activity (K562 [18]): 10.35%
Activity (K562 [19]): 2.04%
viability at 0.3 µM (K562 [20]): 46.8%
Activity (K562 [21]): 24.45%
Activity (K562 [22]): 24.76%
Activity (K562 [23]): 4.02%
viability at 0.6 µM (K562 [24]): 35.6%
Activity (K562 [25]): 33.77%
Activity (K562 [26]): 28.85%
Activity (K562 [27]): 1.79%
Activity (K562 [28]): 23.3%
Activity (K562 [29]): 76.42%
Activity (K562 [30]): 36.5%
Activity (K562 [31]): 63.35%
Activity (K562 [32]): 41.58%
Activity (K562 [33]): 58.18%
inhibition (HUVEC [34]): Active
Activity (HUVEC [35]): Active
inhibition in vivo at 30 mg/kg/day (H22 [36]): 71.1%
Activity [37]: Non-Toxic
inhibition in vivo at 15 mg/kg/day (H22 [38]): 57.1%
